Values after ≈ are worked out from the molar mass of the structure shown. Active and inactive are the calls of the source. The calls are words filed in the database; no cut-off is given here.
Experiments:
[1] = biological target: T1, Metabotropic glutamate receptor 5 (Homo sapiens, UniProt P41594); assay: Positive allosteric modulation of human mGlu5 expressed in HEK293 cells assessed as glutamate-induced calcium mobilization; format: functional, cell-based
Target sequence in this assay (P41594 whole entry): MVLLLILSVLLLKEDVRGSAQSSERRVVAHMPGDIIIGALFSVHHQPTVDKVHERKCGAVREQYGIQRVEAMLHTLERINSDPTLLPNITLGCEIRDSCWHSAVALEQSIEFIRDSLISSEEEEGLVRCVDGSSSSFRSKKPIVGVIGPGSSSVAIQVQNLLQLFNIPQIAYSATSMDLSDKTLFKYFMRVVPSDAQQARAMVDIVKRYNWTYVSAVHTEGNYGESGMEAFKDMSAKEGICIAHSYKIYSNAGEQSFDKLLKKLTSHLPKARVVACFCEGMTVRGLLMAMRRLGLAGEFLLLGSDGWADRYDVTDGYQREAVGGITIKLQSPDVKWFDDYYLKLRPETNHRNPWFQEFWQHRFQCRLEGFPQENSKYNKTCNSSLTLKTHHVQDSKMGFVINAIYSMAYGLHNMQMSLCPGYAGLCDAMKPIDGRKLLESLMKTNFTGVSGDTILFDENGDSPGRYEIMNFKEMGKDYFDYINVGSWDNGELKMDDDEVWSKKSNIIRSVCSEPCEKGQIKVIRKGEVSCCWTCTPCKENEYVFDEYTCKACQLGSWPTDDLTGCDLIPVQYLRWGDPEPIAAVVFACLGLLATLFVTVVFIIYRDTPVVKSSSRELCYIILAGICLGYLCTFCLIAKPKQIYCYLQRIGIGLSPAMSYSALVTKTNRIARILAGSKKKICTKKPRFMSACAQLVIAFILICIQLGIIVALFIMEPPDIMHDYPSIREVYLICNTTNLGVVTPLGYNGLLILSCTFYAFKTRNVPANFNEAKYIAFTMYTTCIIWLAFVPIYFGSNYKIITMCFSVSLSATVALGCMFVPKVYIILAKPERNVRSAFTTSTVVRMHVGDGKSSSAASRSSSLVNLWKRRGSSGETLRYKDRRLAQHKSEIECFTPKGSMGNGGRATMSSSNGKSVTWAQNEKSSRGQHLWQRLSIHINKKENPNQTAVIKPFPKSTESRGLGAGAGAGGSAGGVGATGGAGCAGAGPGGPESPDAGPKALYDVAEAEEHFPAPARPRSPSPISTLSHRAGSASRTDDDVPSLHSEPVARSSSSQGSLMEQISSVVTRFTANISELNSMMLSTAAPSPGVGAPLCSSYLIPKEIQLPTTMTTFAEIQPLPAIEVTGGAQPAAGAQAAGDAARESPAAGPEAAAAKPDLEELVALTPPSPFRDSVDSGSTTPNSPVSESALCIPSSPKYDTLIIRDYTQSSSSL

[2] = biological target: T1, Metabotropic glutamate receptor 5; assay: Positive allosteric modulation of human mGlu5 expressed in HEK293 cells assessed as glutamate-induced calcium mobilization relative to glutamate; format: functional, cell-based
Target sequence in this assay (P41594 21-1212 limits assumed): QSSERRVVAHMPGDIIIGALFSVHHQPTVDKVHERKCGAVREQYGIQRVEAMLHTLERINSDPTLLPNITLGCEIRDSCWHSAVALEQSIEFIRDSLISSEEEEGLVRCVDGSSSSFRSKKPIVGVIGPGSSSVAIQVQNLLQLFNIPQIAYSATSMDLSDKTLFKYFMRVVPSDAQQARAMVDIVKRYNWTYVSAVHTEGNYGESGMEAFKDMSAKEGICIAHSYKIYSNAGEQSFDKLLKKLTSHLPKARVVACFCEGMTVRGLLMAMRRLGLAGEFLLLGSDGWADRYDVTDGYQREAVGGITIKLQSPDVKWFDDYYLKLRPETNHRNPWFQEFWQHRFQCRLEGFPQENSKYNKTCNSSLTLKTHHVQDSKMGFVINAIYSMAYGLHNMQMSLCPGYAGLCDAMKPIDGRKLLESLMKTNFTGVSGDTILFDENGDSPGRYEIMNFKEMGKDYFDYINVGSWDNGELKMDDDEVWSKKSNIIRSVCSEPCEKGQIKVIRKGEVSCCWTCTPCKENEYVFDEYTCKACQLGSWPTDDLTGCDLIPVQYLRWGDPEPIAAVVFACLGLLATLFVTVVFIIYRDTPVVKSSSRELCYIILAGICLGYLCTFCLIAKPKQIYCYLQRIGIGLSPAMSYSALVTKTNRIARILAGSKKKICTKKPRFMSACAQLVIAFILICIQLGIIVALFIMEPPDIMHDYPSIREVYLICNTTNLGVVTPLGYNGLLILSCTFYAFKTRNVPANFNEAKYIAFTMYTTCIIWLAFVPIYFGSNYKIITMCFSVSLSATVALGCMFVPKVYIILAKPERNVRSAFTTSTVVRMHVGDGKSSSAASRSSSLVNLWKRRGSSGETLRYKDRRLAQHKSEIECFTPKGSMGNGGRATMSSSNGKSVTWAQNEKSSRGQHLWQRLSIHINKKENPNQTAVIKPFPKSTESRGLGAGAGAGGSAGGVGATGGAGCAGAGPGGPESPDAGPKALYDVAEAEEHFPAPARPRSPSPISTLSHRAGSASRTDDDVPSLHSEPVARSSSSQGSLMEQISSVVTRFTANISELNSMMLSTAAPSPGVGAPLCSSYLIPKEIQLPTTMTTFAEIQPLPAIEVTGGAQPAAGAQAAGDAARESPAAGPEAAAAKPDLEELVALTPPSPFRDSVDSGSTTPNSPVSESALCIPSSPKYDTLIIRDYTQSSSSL

[3] = Volume of distribution at steady state in rat at 2.5 mg/kg, iv; format: ADME, organism-based; conditions: in vivo, read-out: Vdss
[4] = Volume of distribution at steady state in dog at 0.5 mg/kg, iv; format: ADME, organism-based, Canis lupus familiaris; conditions: in vivo, read-out: Vdss
[5] = in vivo; conditions: dog, po, 5 mg/kg
[6] = biological target: Metabotropic glutamate receptor 6 (Rattus norvegicus, UniProt P35349); assay: Positive allosteric modulation of rat mGlu6 receptor expressed in CHO cells by [35S]-GTPgammaS binding assay; format: functional, cell-based
[7] = biological target: T2, Metabotropic glutamate receptor 4 (Homo sapiens, UniProt Q14833); assay: Positive allosteric modulation of human mGlu4 receptor expressed in L929sA cells assessed as calcium mobilization by fluorescence analysis; format: functional, cell-based
[8] = Plasma protein binding in human assessed as percentage unbound; format: ADME, cell-free
[9] = biological target: Metabotropic glutamate receptor 2 (Homo sapiens, UniProt Q14416); assay: Positive allosteric modulation of human mGlu2 receptor expressed in HEK293 cells assessed as calcium mobilization by fluorescence analysis; format: functional, cell-based
[10] = Half life in dog at 0.5 mg/kg, iv; format: ADME, organism-based, Canis lupus familiaris; conditions: in vivo
[11] = test system: Rattus norvegicus; assay: Toxicity in Sprague-Dawley rat assessed as complusive behavior at 25 to 600 mg/kg, po; format: organism-based; conditions: in vivo
[12] = biological target: T3, Cytochrome P450 1A2 (Homo sapiens, UniProt P05177); assay: Inhibition of CYP1A2 (unknown origin); format: ADME
T3 sequence (P05177 whole entry): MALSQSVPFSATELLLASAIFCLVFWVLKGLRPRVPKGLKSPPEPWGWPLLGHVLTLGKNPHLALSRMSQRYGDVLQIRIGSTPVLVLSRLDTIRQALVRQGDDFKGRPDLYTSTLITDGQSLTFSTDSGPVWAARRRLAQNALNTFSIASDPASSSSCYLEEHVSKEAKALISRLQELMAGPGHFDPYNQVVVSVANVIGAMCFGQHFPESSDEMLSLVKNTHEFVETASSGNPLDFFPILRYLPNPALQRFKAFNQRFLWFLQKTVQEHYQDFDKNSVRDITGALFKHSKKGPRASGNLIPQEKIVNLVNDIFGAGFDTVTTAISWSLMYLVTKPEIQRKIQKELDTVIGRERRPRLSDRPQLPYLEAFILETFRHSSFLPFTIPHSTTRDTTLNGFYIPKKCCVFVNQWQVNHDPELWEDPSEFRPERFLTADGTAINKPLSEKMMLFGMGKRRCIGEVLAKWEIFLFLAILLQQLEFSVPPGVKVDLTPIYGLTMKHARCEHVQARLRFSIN

[13] = AUC (0 to infinity) in dog at 5 mg/kg, po; format: ADME, organism-based, Canis lupus familiaris; set-up: dose 5 mg/kg, time infinity, route oral; conditions: in vivo
[14] = biological target: Voltage-gated inwardly rectifying potassium channel KCNH2 (Homo sapiens, UniProt Q12809); assay: Inhibition of human ERG
[15] = in vivo; conditions: rat, po, 10 mg/kg
Description: Tmax in rat at 10 mg/kg, po

[16] = Half life in rat at 2.5 mg/kg, iv; format: ADME, organism-based; conditions: in vivo
[17] = biological target: Metabotropic glutamate receptor 1 (Homo sapiens, UniProt Q13255); assay: Positive allosteric modulation of human mGlu1 receptor expressed in HEK293 cells assessed as calcium mobilization by fluorescence analysis; format: functional, cell-based
[18] = biological target: Platelet-activating factor receptor (Homo sapiens) (UniProt P25105); assay: Inhibition of human PAF at 10 uM
[19] = biological target: Metabotropic glutamate receptor 7 (Homo sapiens, UniProt Q14831); assay: Positive allosteric modulation of human mGlu7 receptor expressed in HEK293 cells assessed as calcium mobilization by fluorescence analysis; format: functional, cell-based
[20] = Inhibition of Sodium channel (unknown origin); set-up: species or system Homo sapiens
[21] = test system: Rattus norvegicus; assay: Toxicity in Sprague-Dawley rat assessed as tremors at 25 to 600 mg/kg, po; format: organism-based; conditions: in vivo
[22] = Plasma protein binding in rat assessed as percentage unbound; format: ADME, cell-free
[23] = Cmax in rat at 10 mg/kg, po; format: ADME, organism-based; set-up: dose 10 mg/kg, route oral; conditions: in vivo
[24] = Cmax in dog at 5 mg/kg, po; format: ADME, organism-based, Canis lupus familiaris; set-up: dose 5 mg/kg, route oral; conditions: in vivo
[25] = test system: Rattus norvegicus; assay: Antipsychotic-like activity in dosed Sprague-Dawley rat assessed as full reversal of amphetamine-induced hyperlocomotion at 100 mg/kg, po; format: functional, organism-based
[26] = biological target: T2, Metabotropic glutamate receptor 4; assay: Positive allosteric modulation of human mGlu4 receptor expressed in HEK293 cells assessed as calcium mobilization by fluorescence analysis; format: functional, cell-based
[27] = biological target: Cytochrome P450 3A4 (Homo sapiens, UniProt P08684); assay: Inhibition of CYP3A4 (unknown origin); format: ADME
[28] = Inhibition of Calcium channel (unknown origin); set-up: species or system Homo sapiens
[29] = AUC (0 to infinity) in rat at 10 mg/kg, po; format: ADME, organism-based; set-up: dose 10 mg/kg, route oral, time infinity; conditions: in vivo
[30] = Percentage unbound in rat brain; format: ADME, tissue-based; conditions: brain tissue
[31] = test system: Rattus norvegicus; assay: Procognitive activity in po dosed Sprague-Dawley rat assessed as enhancement of contexual fear conditioning acquistion treated for 30 mins prior to conditioning measured after 24 hrs; format: functional
[32] = biological target: Metabotropic glutamate receptor 3 (Homo sapiens, UniProt Q14832); assay: Antagonist activity at human mGlu3 expressed in HEK293 cells assessed as inhibition of glutamate-induced calcium mobilization; format: functional, cell-based
[33] = biological target: Metabotropic glutamate receptor 8 (Homo sapiens, UniProt O00222); assay: Positive allosteric modulation of human mGlu8 receptor expressed in HEK293 cells assessed as calcium mobilization by fluorescence analysis; format: functional, cell-based
[34] = Plasma clearance in rat at 2.5 mg/kg, iv; format: ADME, organism-based
[35] = Oral bioavailability in rat at 10 mg/kg; format: ADME, organism-based; conditions: in vivo
[36] = biological target: T2, Metabotropic glutamate receptor 4; assay: Positive allosteric modulation of human mGlu4 receptor expressed in HEK293 cells by [35S]-GTPgammaS binding assay; format: functional, cell-based
[37] = Oral bioavailability in dog at 5 mg/kg; format: ADME, organism-based, Canis lupus familiaris; conditions: in vivo
[38] = biological target: T2, Metabotropic glutamate receptor 4; assay: Positive allosteric modulation of human mGlu4 receptor expressed in L929sA cells by [35S]-GTPgammaS binding assay; format: functional, cell-based
[39] = test system: Rattus norvegicus; assay: Antipsychotic-like activity in po dosed Sprague-Dawley rat assessed as reversal of amphetamine-induced hyperlocomotion; format: functional
[40] = biological target: Cytochrome P450 2C9 (Homo sapiens, UniProt P11712); assay: Inhibition of CYP2C9 (unknown origin); format: ADME
[41] = biological target: Cytochrome P450 2D6 (Homo sapiens, UniProt P10635); assay: Inhibition of CYP2D6 (unknown origin); format: ADME
[42] = test system: Rattus norvegicus; assay: Toxicity in Sprague-Dawley rat assessed as pedaling movements of forepaws at 25 to 600 mg/kg, po; format: organism-based; conditions: in vivo
[43] = Plasma clearance in dog at 0.5 mg/kg, iv; format: ADME, organism-based, Canis lupus familiaris
[44] = Solubility of compound in fed state simulated intestinal fluid; format: ADME; conditions: simulated gi fluid
[45] = test system: Rattus norvegicus; assay: Toxicity in Sprague-Dawley rat assessed as mortality at 600 mg/kg, po; format: organism-based; conditions: in vivo

T2 sequence (Q14833 whole entry): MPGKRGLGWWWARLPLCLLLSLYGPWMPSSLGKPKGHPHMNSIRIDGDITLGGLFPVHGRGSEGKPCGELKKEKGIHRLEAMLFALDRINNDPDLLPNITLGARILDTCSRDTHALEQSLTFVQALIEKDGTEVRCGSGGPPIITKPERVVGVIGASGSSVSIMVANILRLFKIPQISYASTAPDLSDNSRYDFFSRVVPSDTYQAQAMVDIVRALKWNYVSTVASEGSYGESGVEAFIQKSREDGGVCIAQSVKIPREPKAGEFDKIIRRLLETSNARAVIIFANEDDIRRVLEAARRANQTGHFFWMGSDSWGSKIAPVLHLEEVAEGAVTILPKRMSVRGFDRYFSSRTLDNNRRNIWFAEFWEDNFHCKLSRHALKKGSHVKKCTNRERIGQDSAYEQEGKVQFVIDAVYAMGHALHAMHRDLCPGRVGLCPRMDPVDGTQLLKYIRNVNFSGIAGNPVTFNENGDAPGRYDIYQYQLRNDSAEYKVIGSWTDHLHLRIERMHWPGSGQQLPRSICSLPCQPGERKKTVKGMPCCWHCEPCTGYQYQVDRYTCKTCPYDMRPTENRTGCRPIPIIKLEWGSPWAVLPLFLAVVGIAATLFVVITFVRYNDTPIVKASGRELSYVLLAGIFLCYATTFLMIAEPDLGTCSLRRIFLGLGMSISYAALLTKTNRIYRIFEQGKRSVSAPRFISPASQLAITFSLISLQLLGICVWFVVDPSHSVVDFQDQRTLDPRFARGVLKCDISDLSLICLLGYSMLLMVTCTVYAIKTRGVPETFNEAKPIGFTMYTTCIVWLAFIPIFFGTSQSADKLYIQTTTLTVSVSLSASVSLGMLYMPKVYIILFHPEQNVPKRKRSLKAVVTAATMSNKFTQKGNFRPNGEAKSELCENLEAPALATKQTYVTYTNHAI
Metabotropic glutamate receptor 3, sequence (Q14832 whole entry): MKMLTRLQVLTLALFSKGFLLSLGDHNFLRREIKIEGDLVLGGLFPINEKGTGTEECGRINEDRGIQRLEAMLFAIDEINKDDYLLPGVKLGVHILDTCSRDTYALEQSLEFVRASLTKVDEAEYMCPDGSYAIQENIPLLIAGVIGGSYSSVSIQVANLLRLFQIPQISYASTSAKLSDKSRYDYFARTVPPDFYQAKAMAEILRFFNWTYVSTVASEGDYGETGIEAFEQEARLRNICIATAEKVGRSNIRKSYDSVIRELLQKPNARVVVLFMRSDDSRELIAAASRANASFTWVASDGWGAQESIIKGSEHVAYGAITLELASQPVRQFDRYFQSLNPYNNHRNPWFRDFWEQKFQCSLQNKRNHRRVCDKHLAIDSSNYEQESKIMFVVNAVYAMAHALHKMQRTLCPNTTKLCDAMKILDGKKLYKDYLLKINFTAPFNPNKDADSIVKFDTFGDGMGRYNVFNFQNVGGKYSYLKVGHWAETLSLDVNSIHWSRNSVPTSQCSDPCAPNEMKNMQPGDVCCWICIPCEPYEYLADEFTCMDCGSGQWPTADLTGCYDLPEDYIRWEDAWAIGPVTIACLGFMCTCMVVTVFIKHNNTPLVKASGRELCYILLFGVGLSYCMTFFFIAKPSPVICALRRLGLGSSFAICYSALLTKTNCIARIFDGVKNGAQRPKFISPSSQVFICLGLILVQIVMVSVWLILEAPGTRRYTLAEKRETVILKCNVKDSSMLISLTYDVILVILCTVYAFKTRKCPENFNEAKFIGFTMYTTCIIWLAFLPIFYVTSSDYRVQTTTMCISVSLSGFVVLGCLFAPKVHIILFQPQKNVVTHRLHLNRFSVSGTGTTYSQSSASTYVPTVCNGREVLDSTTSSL
Metabotropic glutamate receptor 6, sequence (P35349 whole entry): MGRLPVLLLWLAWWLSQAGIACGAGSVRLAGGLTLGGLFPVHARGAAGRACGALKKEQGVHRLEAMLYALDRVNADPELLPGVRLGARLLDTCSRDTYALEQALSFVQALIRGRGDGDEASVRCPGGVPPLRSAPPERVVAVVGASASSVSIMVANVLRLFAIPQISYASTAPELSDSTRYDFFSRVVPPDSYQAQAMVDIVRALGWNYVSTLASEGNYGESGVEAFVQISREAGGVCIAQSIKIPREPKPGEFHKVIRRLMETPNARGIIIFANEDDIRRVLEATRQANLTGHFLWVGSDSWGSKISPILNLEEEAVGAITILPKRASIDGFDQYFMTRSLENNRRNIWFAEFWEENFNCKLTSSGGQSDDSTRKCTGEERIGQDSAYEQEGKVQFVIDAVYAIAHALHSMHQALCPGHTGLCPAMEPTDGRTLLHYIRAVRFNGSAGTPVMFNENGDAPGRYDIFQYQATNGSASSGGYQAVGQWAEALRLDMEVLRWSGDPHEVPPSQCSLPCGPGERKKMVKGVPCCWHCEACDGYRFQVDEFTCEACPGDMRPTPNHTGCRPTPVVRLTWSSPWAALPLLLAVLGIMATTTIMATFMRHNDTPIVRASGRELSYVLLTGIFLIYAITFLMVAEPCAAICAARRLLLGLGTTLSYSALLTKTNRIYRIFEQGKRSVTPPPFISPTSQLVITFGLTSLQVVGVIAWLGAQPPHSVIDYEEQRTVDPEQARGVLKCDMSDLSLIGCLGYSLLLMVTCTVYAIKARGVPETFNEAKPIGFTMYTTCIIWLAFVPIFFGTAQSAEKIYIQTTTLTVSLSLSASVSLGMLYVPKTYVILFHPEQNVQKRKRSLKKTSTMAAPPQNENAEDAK

## O=C1c2cc(COc3cccc(F)c3)nn2CCN1c1ccc(F)cn1
[1]; read-out: EC50
  EC50: 0.091 µM
[2]
  Emax: 62%

## CC(Oc1ccccc1)c1cc2n(n1)CCN(c1ccc(F)cc1)C2=O (stereo not given)
[1]; read-out: EC50
  EC50: 7.76 µM
[2]
  Emax: 65%

## O=C1c2c(Cl)c(COc3ccccc3)nn2CCN1c1ccc(F)cc1
[1]; read-out: EC50
  EC50: > 30 µM

## O=C1c2cc(COc3ccccc3)nn2CCN1c1cccnc1
[1]; read-out: EC50
  EC50: 2.09 µM
[2]
  Emax: 64%

## O=C1c2cc(COc3ccccc3)nn2CCN1c1ccccc1F
[1]; read-out: EC50
  EC50: 0.16 µM
[2]
  Emax: 86%

## Cc1ccc(N2CCn3nc(COc4ccccc4)cc3C2=O)nc1
[1]; read-out: EC50
  EC50: 0.19 µM
[2]
  Emax: 76%

## O=C1c2cc(COc3ccccc3)nn2CCN1c1ccc(F)cn1
[3]
  Vd: 1.6 L/kg
[4]
  Vd: 2.6 L/kg
[5]
  Tmax: 0.7 h
[6]
  EC50: > 10 µM
[7]
  EC50: > 10 µM
[8]
  Fu: 8.2%
[9]
  EC50: > 10 µM
[10]
  half-life: 2.4 h
[11]
  Activity: Toxic
[12]
  IC50: ≥ 30 µM
[13]
  AUC(0-inf): 1540 ng·h/mL
[1]; read-out: EC50
  EC50: 0.13 µM
[14]
  IC50: > 10 µM
[2]
  Emax: 72%
[15]
  Tmax: 4 h
[16]
  half-life: 1.6 h
[17]
  EC50: > 10 µM
[18]
  inhibition: 57%
[19]
  EC50: > 10 µM
[20]
  IC50: > 10 µM
[21]
  Activity: Toxic
[22]
  Fu: 6.8%
[23]
  Cmax: 730 ng/mL
[24]
  Cmax: 519 ng/mL
[25]
  Activity: Active
[26]
  EC50: > 10 µM
[27]
  IC50: ≥ 30 µM
[28]
  IC50: > 10 µM
[29]
  AUC(0-inf): 6670 ng·h/mL
[30]
  fraction unbound: 0.055
[31]
  Activity: Dose-dependent effect
[31]; read-out: MED
  minimal effective dose: 0.3 mg/kg
[32]
  EC50: 6.76 µM
[33]
  EC50: > 10 µM
[34]
  clearance: 19 mL/min/kg
[35]
  bioavailability: 88%
[36]
  EC50: > 10 µM
[37]
  bioavailability: 48%
[38]
  EC50: > 10 µM
[39]
  Activity: Dose-dependent effect
[40]
  IC50: ≥ 30 µM
[41]
  IC50: ≥ 30 µM
[42]
  Activity: Toxic
[43]
  clearance: 25 mL/min/kg
[44]
  solubility: 13 µg/mL (≈ 38.4 µM)
[45]
  Activity: Toxic

## COc1ccc(N2CCn3nc(COc4ccccc4)cc3C2=O)cc1
[1]; read-out: EC50
  EC50: 0.11 µM
[2]
  Emax: 58%

## O=C1c2cc(COc3ccccc3)nn2CCN1c1ncc(F)cn1
[1]; read-out: EC50
  EC50: 0.76 µM
[2]
  Emax: 72%

## O=C1c2cc(OCc3ccccc3)nn2CCN1c1ccc(F)cc1
[6]
  EC50: > 10 µM
[7]
  EC50: > 10 µM
[9]
  EC50: > 10 µM
[1]; read-out: EC50
  EC50: 0.16 µM
[2]
  Emax: 54%
[17]
  EC50: > 10 µM
[19]
  EC50: > 10 µM
[26]
  EC50: > 10 µM
[30]
  fraction unbound: 0.065
[32]
  EC50: 3.39 µM
[33]
  EC50: > 10 µM
[36]
  EC50: > 10 µM
[38]
  EC50: > 10 µM

## O=C1c2cc(COc3ccccc3)nn2CCN1c1ccc(F)cc1F
[1]; read-out: EC50
  EC50: 0.1 µM
[2]
  Emax: 101%

## O=C1c2nc(COc3ccccc3)nn2CCN1c1ccc(F)cc1
[1]; read-out: EC50
  EC50: 2.34 µM
[2]
  Emax: 65%

## O=C1c2cc(COc3ccccc3)nn2CCN1c1ccccn1
[1]; read-out: EC50
  EC50: 0.76 µM
[2]
  Emax: 69%

## O=C1c2cc(COc3ccccc3)nn2CCCN1c1ccc(F)cc1
[1]; read-out: EC50
  EC50: 0.22 µM
[1]; read-out: pEC50 (converted)
  EC50: 0.0871 µM
[2]
  Emax: 79%
[32]
  EC50: 0.54 µM

## O=C1c2cc(OCc3ccccc3)nn2CCN1c1cc(F)ccn1
[1]; read-out: EC50
  EC50: > 30 µM
